How the values were obtained:
Assay type in all cases: cell-based
HEK cells = assay: Uptake by flow cytometry, HEK cells
Experimental: (§1) Uptake of compound no. 446654 by A431 cells was measured by flow cytometry. A431 cells were treated with a growth factor for 4 hours prior to incubation with compound no. 446654 for 2 hours. Results are presented in the tables below as relative fluorescence units (RFU) and represent an average of three independent experiments.
Uptake of compound no. 446654 was measured via flow cytometry, as in Example 8, in HEK cells overexpressing EGFR and wild type HEK cells.

EGFR = assay: Microscopy of EGF-induced internalization and recycling of EGFR; details: with EGF, 16 hours
Experimental: Microscopy studies were also carried out to evaluate the EGF-induced internalization and recycling of EGFR in the presence of Cy3-labeled PS-ASO, compound no. 446654. Cells were treated with EGF alone or EGF and compound no. 446654 for 16 hours. The cells were then either immediately stained and imaged, or the EGF and, if applicable, compound no. 446654 were removed for two hours prior to staining and imaging. Staining and imaging were performed as described above. […] Two hours after removal of EGF, cells show EGFR staining primarily in the plasma membrane. […] Two hours after removal of EGF and/or compound no. 446654, the Cy3 signal remained diffuse throughout the cytoplasm, while EGFR staining primarily localized to the plasma membrane.

A431 cells = assay: Uptake of Cy3-labeled ASO by flow cytometry, A431 cells
Experimental: as §1
Uptake of compound no. 446654 was measured in siRNA treated A431 cells via flow cytometry, as described in example 8. The results are presented in the tables below and indicate that uptake of compound no. 446654 was unaffected by EGFR expression level.

Cy3-^mCesTesGes^mCesTesAdsGds^mCdsTds^mCdsTdsGdsGdsAdsTesTesTesGesAe (antisense CTGCTAGCCTCTGGATTTGA; listed as DNA, chemistry not fully specified) [compound 446654, Cy3-labeled PS-ASO]
RFU (HEK cells; 0.25 μM, Overexpressing EGFR): 123 RFU | RFU (HEK cells; 0.25 μM, Wild type HEK cells): 109 RFU | RFU (HEK cells; 0.5 μM, Overexpressing EGFR): 163 RFU | RFU (HEK cells; 0.5 μM, Wild type HEK cells): 143 RFU | RFU (HEK cells; 1 μM, Overexpressing EGFR): 255 RFU | RFU (HEK cells; 1 μM, Wild type HEK cells): 287 RFU | uptake, effect of varying EGFR expression levels (HEK cells; HEK cells overexpressing EGFR vs wild type): did not affect | distribution of the ASO in cells (EGFR): distributed throughout the cytoplasm | RFU (A431 cells; 0.015 μM, Control Luciferase siRNA): 22.3 RFU | RFU (A431 cells; 0.015 μM, EGFR siRNA-1): 25.3 RFU | RFU (A431 cells; 0.015 μM, EGFR siRNA-2): 24.7 RFU | RFU (A431 cells; 0.03 μM, Control Luciferase siRNA): 31.3 RFU | RFU (A431 cells; 0.03 μM, EGFR siRNA-1): 33.0 RFU | RFU (A431 cells; 0.03 μM, EGFR siRNA-2): 29.0 RFU | RFU (A431 cells; 0.06 μM, Control Luciferase siRNA): 136 RFU | RFU (A431 cells; 0.06 μM, EGFR siRNA-1): 133 RFU | RFU (A431 cells; 0.06 μM, EGFR siRNA-2): 101 RFU | RFU (A431 cells; 0.12 μM, Control): 1475 RFU | RFU (A431 cells; 0.12 μM, Control Luciferase siRNA): 359 RFU | RFU (A431 cells; 0.12 μM, EGF): 1772 RFU | RFU (A431 cells; 0.12 μM, EGFR siRNA-1): 444 RFU | RFU (A431 cells; 0.12 μM, EGFR siRNA-2): 292 RFU | RFU (A431 cells; 0.12 μM, FGF): 1420 RFU | RFU (A431 cells; 0.12 μM, HGF): 1204 RFU | RFU (A431 cells; 0.12 μM, IGF): 1659 RFU | RFU (A431 cells; 0.12 μM, PGF): 1321 RFU | RFU (A431 cells; 0.12 μM, TGF): 1500 RFU | RFU (A431 cells; 0.12 μM, VEGF): 1147 RFU | RFU (A431 cells; 0.25 μM, Control): 1606 RFU | RFU (A431 cells; 0.25 μM, Control Luciferase siRNA): 806 RFU | RFU (A431 cells; 0.25 μM, EGF): 1917 RFU | RFU (A431 cells; 0.25 μM, EGFR siRNA-1): 879 RFU | RFU (A431 cells; 0.25 μM, EGFR siRNA-2): 852 RFU | RFU (A431 cells; 0.25 μM, FGF): 1682 RFU | RFU (A431 cells; 0.25 μM, HGF): 1481 RFU | RFU (A431 cells; 0.25 μM, IGF): 1435 RFU | RFU (A431 cells; 0.25 μM, PGF): 1275 RFU | RFU (A431 cells; 0.25 μM, TGF): 1871 RFU | RFU (A431 cells; 0.25 μM, VEGF): 1423 RFU | RFU (A431 cells; 0.5 μM, Control): 2223 RFU | RFU (A431 cells; 0.5 μM, Control Luciferase siRNA): 1392 RFU | RFU (A431 cells; 0.5 μM, EGF): 2349 RFU | RFU (A431 cells; 0.5 μM, EGFR siRNA-1): 1437 RFU | RFU (A431 cells; 0.5 μM, EGFR siRNA-2): 1490 RFU | RFU (A431 cells; 0.5 μM, FGF): 1827 RFU | RFU (A431 cells; 0.5 μM, HGF): 2095 RFU | RFU (A431 cells; 0.5 μM, IGF): 1917 RFU | RFU (A431 cells; 0.5 μM, PGF): 2112 RFU | RFU (A431 cells; 0.5 μM, TGF): 2081 RFU | RFU (A431 cells; 0.5 μM, VEGF): 1973 RFU | RFU (A431 cells; 1.0 μM, Control): 1565 RFU | RFU (A431 cells; 1.0 μM, Control Luciferase siRNA): 2374 RFU | RFU (A431 cells; 1.0 μM, EGF): 2532 RFU | RFU (A431 cells; 1.0 μM, EGFR siRNA-1): 2614 RFU | RFU (A431 cells; 1.0 μM, EGFR siRNA-2): 2906 RFU | RFU (A431 cells; 1.0 μM, FGF): 2414 RFU | RFU (A431 cells; 1.0 μM, HGF): 2533 RFU | RFU (A431 cells; 1.0 μM, IGF): 2237 RFU | RFU (A431 cells; 1.0 μM, PGF): 2487 RFU | RFU (A431 cells; 1.0 μM, TGF): 2826 RFU | RFU (A431 cells; 1.0 μM, VEGF): 2655 RFU | RFU (A431 cells; Time 0.25 hours, Control Luciferase siRNA): 1082 RFU | RFU (A431 cells; Time 0.25 hours, EGFR siRNA-1): 814 RFU | RFU (A431 cells; Time 0.25 hours, EGFR siRNA-2): 950 RFU | RFU (A431 cells; Time 0.5 hours, Control Luciferase siRNA): 1988 RFU | RFU (A431 cells; Time 0.5 hours, EGFR siRNA-1): 1562 RFU | RFU (A431 cells; Time 0.5 hours, EGFR siRNA-2): 1637 RFU | RFU (A431 cells; Time 1 hours, Control Luciferase siRNA): 2315 RFU | RFU (A431 cells; Time 1 hours, EGFR siRNA-1): 2308 RFU | RFU (A431 cells; Time 1 hours, EGFR siRNA-2): 2698 RFU | RFU (A431 cells; Time 2 hours, Control Luciferase siRNA): 2276 RFU | RFU (A431 cells; Time 2 hours, EGFR siRNA-1): 2280 RFU | RFU (A431 cells; Time 2 hours, EGFR siRNA-2): 2349 RFU | RFU (A431 cells; Time 4 hours, Control Luciferase siRNA): 3103 RFU | RFU (A431 cells; Time 4 hours, EGFR siRNA-1): 2854 RFU | RFU (A431 cells; Time 4 hours, EGFR siRNA-2): 3069 RFU | RFU (A431 cells; Time 6 hours, Control Luciferase siRNA): 4300 RFU | RFU (A431 cells; Time 6 hours, EGFR siRNA-1): 3747 RFU | RFU (A431 cells; Time 6 hours, EGFR siRNA-2): 3821 RFU | RFU (A431 cells; Time 8 hours, Control Luciferase siRNA): 4988 RFU | RFU (A431 cells; Time 8 hours, EGFR siRNA-1): 5048 RFU | RFU (A431 cells; Time 8 hours, EGFR siRNA-2): 5145 RFU | total uptake, effect of growth factor treatment (A431 cells; growth factor 4 hours, then compound 2 hours): not affected in a significant, dose dependent manner | uptake, effect of EGFR expression level (A431 cells; siRNA treated A431 cells): unaffected
